The target of series [1] is T1, μ opioid receptor (MOR) (Homo sapiens, UniProt P35372).
T1 construct: host or cells: HEK293
The series can be described thus: cell-based. The settings on record: HEK293 stably expressing μ opioid receptor, FLIPR calcium.

The subject of series [2] is SD rats. The series can be described thus: Respiratory depression in rats, arterial blood gas PCO2. It counts as in vivo. Conditions: for PCO2, 5 min before administration: arterial blood; for PCO2, 5 min after administration / PCO2, 30 min after administration / PCO2, 60 min after administration / PCO2, 120 min after administration: intravenous single dose 0.3 mg/kg (morphine 24 mg/kg).

Series [3] can be described thus: Pharmacokinetic test in rats, intravenous. Type of series: in vivo. The settings on record: male, SD, rat, plasma, intravenous 1 mg/kg; for AUC: read-out: curve area (AUC); for half-life: read-out: half life (T½) (converted); for Cmax: read-out: plasma concentration (Cmax). The text has this: 8-week-old male SD rats weighing 200-300 g were used as experimental animals, and LC/MS/MS method was used to determine the drug concentration in plasma at different times after the administration of the compound of Example H01, the compound of Example H04, the compound of Example H05, the compound of Example H07, the compound of Example H16, the compound of Example H17, the compound of Example H18, the compound of Example H21, and the compound of Example H24. The pharmacokinetic behavior of the compounds of the present invention in rats was studied, and its pharmacokinetic characteristics were evaluated.
A certain amount of the compounds were weighed, and dissolved in ethanol/castor oil/water=10/10/80 to form a uniform solution.
The above compounds were administered intravenously to rats at a dose of 1 mg/kg, and 0.2 ml of blood was collected from the orbit at 0.083, 0.25, 0.5, 1.0, 2.0, 4.0, 6.0, 8.0, 12.0, 24.0 hours before and after administration, and placed in an anticoagulant tube, the plasma was separated by centrifugation at 6,000 rpm for 10 minutes at 4° C., and stored at −80° C.
50 μL of plasma was taken at different times, 150 μL of acetonitrile solution containing internal standard tolbutamide (200 ng/mL) was added, the system was mixed and shaked for 5 minutes, 12000 rpm, centrifuged for 5 minutes, 100 μL of supernatant was removed, and then mixed with 200 μL of water, then the sample was loaded for analysis. The internal standard tolbutamide solid (Aladdin, T129578) powder was dissolved in DMSO to prepare into a 1 mg/mL stock solution. The stock solution was diluted with 100% acetonitrile to obtain a solution of 200 ng/mL as a protein precipitator.
The liquid chromatography system was an LC-20AD UFLC high performance liquid chromatography system (Shimadzu, LC-20AD). The mass spectrometry system was an AB Sciex API4000 triple quadrupole mass spectrometer equipped with an electrospray ionization source (ESI) (Applied Biosystems, Canada). The software used to control the liquid-mass coanalyzer and quantitative analysis was Analyst 1.6 (Applied Biosystems, Canada), and the pharmacokinetic parameters were analyzed using WinNonlin (version 5.2, Pharsight, Mountain View, Calif.) non-compartment model.
Liquid chromatographic separation was performed using AQ-C18 column (50×2.1 mm, internal diameter of […]). The column temperature was maintained at room temperature.
The compound to be tested was dissolved in DMSO to prepare a stock solution with a concentration of 1 mg/mL, and diluted with 70% acetonitrile to obtain a series of standard working solutions with concentrations of 30, 10, 3, 1, 0.3, 0.1, 0.03, and 0.01. μg/mL, and a series of standard quality control solutions (24, 8 and 0.03 μg/mL). 5 μL of standard solution and 45 μL of blank plasma matrix were mixed uniformity to obtain standard solutions (3000, 1000, 300, 100, 30, 10, 3, and 1 ng/mL) and quality control standards (plasma samples: 2400, 800, 80, and 3 ng/mL) at each concentration point of the standard curve.

This is an account of results in patent US11072601B2, “μ-opioid receptor agonist and preparation method therefor and use thereof in field of medicine” (SHANGHAI SYNERGY PHARMACEUTICAL SCIENCES CO., LTD., priority 2017, dated 2021).

Usually EC50 stands for the concentration giving half of the maximal effect. For orientation: AUC means the area under the concentration-time curve, a measure of exposure. What is called half-life is how long it takes for the measured level to halve.

T1 sequence (P35372 whole entry, species assumed): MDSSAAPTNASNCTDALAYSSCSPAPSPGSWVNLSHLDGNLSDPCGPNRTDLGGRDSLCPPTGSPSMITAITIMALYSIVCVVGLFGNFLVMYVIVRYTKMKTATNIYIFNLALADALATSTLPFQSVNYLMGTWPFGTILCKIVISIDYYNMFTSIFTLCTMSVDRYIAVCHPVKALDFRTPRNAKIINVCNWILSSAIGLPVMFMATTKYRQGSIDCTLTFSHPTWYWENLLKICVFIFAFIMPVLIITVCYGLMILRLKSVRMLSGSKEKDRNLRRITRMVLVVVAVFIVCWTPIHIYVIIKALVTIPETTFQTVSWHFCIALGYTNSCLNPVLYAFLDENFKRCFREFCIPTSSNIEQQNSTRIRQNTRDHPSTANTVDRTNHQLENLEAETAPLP

With `FC(F)Oc1ccsc1CNCCC1(c2ccccn2)CCOC2(CCCC2)C1` (stereo not shown) [Example H18, ((3-difluoromethoxythiophen-2-yl)methyl)-[2-(9-(pyridin-2-yl)-6-oxaspiro[4.5]decan-9-yl)ethyl]a mine], the EC50 in series [1] was 7.32 nM. Besides, in series [2], the “PCO2, 5 min before administration” value turned out to be 33.77 ± 0.88 mmHg; the “PCO2, 5 min after administration” value was found to be 35.48 ± 1.54 mmHg; the “PCO2, 30 min after administration” value is listed as 34.03 ± 0.69 mmHg; the “PCO2, 60 min after administration” value was found to be 36.27 ± 1.4 mmHg. For the same compound, the “PCO2, 120 min after administration” value in series [2] is on record as 34.83 ± 1.45 mmHg. Also, in series [3], the AUC was determined as 582 ± 11.8 ng·h/mL, the half-life was 3.45 ± 0.55 h and the Cmax came to 483 ± 23.3 ng/mL.

As to `FC(F)(F)Oc1ccc(Cl)cc1CNCCC1(c2ccccn2)CCOC2(CCCC2)C1` (stereo not shown) [Example H17, (5-chloro-2-trifluoromethoxybenzyl)-[2-(9-(pyridin-2-yl)-6-oxaspiro[4.5]decan-9-yl)ethyl]amine], the EC50 in series [1] is 8.68 nM. Besides, in series [2], the “PCO2, 5 min before administration” value came out at 34.77 ± 1.88 mmHg; the “PCO2, 5 min after administration” value turned out to be 35.48 ± 1.74 mmHg; the “PCO2, 30 min after administration” value is given as 34.03 ± 1.69 mmHg; the “PCO2, 60 min after administration” value was determined as 34.27 ± 1.4 mmHg. The “PCO2, 120 min after administration” value in series [2] was found to be 34.83 ± 1.15 mmHg. In series [3], the AUC came to 482 ± 31.8 ng·h/mL, the half-life was 1.45 ± 0.15 h and the Cmax is 388 ± 23.3 ng/mL.

On to `Cc1c(Cl)cccc1CNCCC1(c2ccccn2)CCOC2(CCCC2)C1` (stereo not shown) [Example H04, (3-chloro-2-methylbenzyl)-[2-(9-(pyridin-2-yl)-6-oxaspiro[4.5]decan-9-yl)ethyl]amine], for which the EC50 in series [1] came to 6.05 nM. In series [3], the AUC was 494 ± 34 ng·h/mL, the half-life was 2.92 ± 0.02 h and the Cmax stood at 378 ± 17.5 ng/mL.

Regarding `CNc1ccsc1C(=O)NCCC1(c2ccccn2)CCOC2(CCCC2)C1` (stereo not shown) [Example H24, 3-methylamino-thiophene-2-carboxylic acid [2-(9-pyridin-2-yl-6-oxa-spiro[4.5]decan-9-yl)-ethyl]-amide], in series [1], the EC50 was determined as 10.7 nM. In addition, in series [2], the “PCO2, 5 min before administration” value was 36.77 ± 1.94 mmHg; the “PCO2, 5 min after administration” value is given as 36.48 ± 1.80 mmHg; the “PCO2, 30 min after administration” value came to 33.03 ± 0.72 mmHg; the “PCO2, 60 min after administration” value came to 36.27 ± 1.57 mmHg. For the same compound, the “PCO2, 120 min after administration” value in series [2] came out at 36.83 ± 1.73 mmHg. Also, in series [3], the AUC is 682 ± 21 ng·h/mL, the half-life is 3.05 ± 0.15 h and the Cmax amounted to 583 ± 23.3 ng/mL.

In the case of `Fc1ccc(C2(CCNCc3ccccc3OC(F)(F)F)CCOC3(CCCC3)C2)nc1` (stereo not shown) [Example H21, {2-[9-(5-fluoro-pyridin-2-yl)-6-oxa-spiro[4.5]decan-9-yl]-ethyl}-(2-(trifluoromethoxy)-phenmethyl)-amine], the EC50 in series [1] worked out at 4.02 nM. Further, in series [2], the “PCO2, 5 min before administration” value came to 36.77 ± 1.78 mmHg; the “PCO2, 5 min after administration” value was determined as 35.48 ± 1.72 mmHg; the “PCO2, 30 min after administration” value turned out to be 36.03 ± 1.42 mmHg; the “PCO2, 60 min after administration” value worked out at 37.27 ± 1.94 mmHg. Moreover, in series [2], the “PCO2, 120 min after administration” value is given as 36.83 ± 1.65 mmHg. Also, in series [3], the AUC turned out to be 382 ± 10.8 ng·h/mL, the half-life was 2.05 ± 0.25 h and the Cmax was 283 ± 13.3 ng/mL.

As for `FC(F)Oc1ccccc1CNCCC1(c2ccccn2)CCOC2(CCCC2)C1` (stereo not shown) [Example H16, (2-difluoromethoxybenzyl)-[2-(9-(pyridin-2-yl)-6-oxaspiro[4.5]decan-9-yl)ethyl]amine], the EC50 in series [1] was determined as 9.06 nM. Besides, in series [2], the “PCO2, 5 min before administration” value came to 35.27 ± 0.43 mmHg; the “PCO2, 5 min after administration” value is reported as 30.48 ± 1.24 mmHg; the “PCO2, 30 min after administration” value is 30.03 ± 0.62 mmHg; the “PCO2, 60 min after administration” value is reported as 31.27 ± 1.2 mmHg. Also, in series [2], the “PCO2, 120 min after administration” value is 31.83 ± 1.40 mmHg. For the same compound, in series [3], the AUC was 1190 ± 54 ng·h/mL, the half-life was 5.3 ± 0.02 h and the Cmax stood at 820 ± 37.5 ng/mL.
